Results: publication PMC5823406, “Vehicle development, pharmacokinetics and toxicity of the anti-invasive agent 4-fluoro-3’,4’,5’-trimethoxychalcone in rodents” (PLoS ONE, 2018)
“And” between values parts separate entries of the source, which are not always exact repeats. Identical values can stand only once.

Columns and labels:
[1] = Whole-blood PK study (IV, IP and PO) in male CD-1 mice; format: in vivo, mouse
Experimental: Nine male CD-1 mice (25–35 g) were obtained from Hilltop Labs. Duration of acclimation was at least two days. Animals were randomly assigned to the three dose groups (IV, PO, intraperitoneal (IP), N = 3 per group), healthy at the start of the trial, housed one per cage (conventional type with wood chip bedding material), identified by a cage label and maintained in a well-controlled temperature (20–24 C) and humidity (30%-70%) environment with 12 h light/dark cycles. Animals intended for IV dosing were fitted with a jugular vein cannula (JVC, procedure see rat plasma PK study above). The study was not blinded. Food was withheld from the animals for a minimum of 12 h prior to test article administration until 4 h post-dose. Water was offered ad libitum.
C16 was dosed in cassette together with two undisclosed compounds of similar chemical structure. The dose of each test article was 1 mg/kg (IV, JVC, 0.5 mg/mL) or 10 mg/kg (IP and PO gavage, 2 mg/mL). Two respective dosing solutions were prepared (protocol see above) containing 0.5 and 2 mg/mL of C16 (and equal concentrations of the other two test articles) in 20% DMSO / 10% (DMSO / Cremophor EL 1:1) / 70% H2O. Formulations were prepared one day prior to dosing and stored at 4 °C.
Blood samples were taken pre-dose and 5 (except for PO administration), 15, 30 min, 1, 2, 4, and 8 h after dosing. The samples were collected via the tail vein or by cardiac puncture (8 h time point). Blood (25 μL) was collected and pipetted into a tube with 25 μL heparinized water (1 μL of sodium heparin (1000 unit/ml) + 24 μL water) within 30 seconds of collection. The sample was pipetted up and down five times, immediately frozen on dry ice and stored at -60°C to -80°C until analyzed. No necropsy was performed.
Pharmacokinetic parameters were estimated by a non-compartmental model using WinNonlin (v5.2.1 or higher) software. The maximum plasma/blood concentrations (c0) after IV dosing were estimated by extrapolation of the first two time points back to t = 0. The maximum blood concentration (cmax) and the time to reach maximum blood drug concentration (tmax) after PO dosing were derived from the data. The area under the time-concentration curve (AUC) was calculated using the linear trapezoidal rule with calculation to the last quantifiable data point, and with extrapolation to infinity if applicable. Plasma/blood half-life (t1/2) was calculated from 0.693/slope of the terminal elimination phase. Mean residence time (MRT) was calculated by dividing the area under the moment curve (AUMC) by the AUC. Clearance (CL) was calculated from dose/AUC. Steady-state volume of distribution (Vss) was calculated from CL*MRT. Bioavailability was determined by dividing the individual dose-normalized PO AUC values by the respective average dose-normalized intravenous (IV) AUC value. Samples that were below the limit of quantification were not used in the calculation of averages, and were treated as zero for pharmacokinetic data analysis. […]
Sprague-Dawley rats at 10 mg/kg (in 100% DMSO). […]
c Bioavailability determined by dividing the individual dose normalized oral AUC last by the average dose normalized intravenous AUC last value. […]
The dosing solution was prepared as a cassette to contain all three test articles in the same solutions using a vehicle
consisting of 20% DMSO/10% (DMSO/Cremophor EL 1:1)/70% Milli-Q water.
Individual blood concentrations and pharmacokinetic parameters are shown in Table H through Table J. All data are
expressed as ng/mL of the free drug. Samples that were below the limit of quantification were not used in the
calculation of averages. Concentration versus time data are plotted in Fig D through Fig F.
Table H. Individual blood concentrations (ng/mL) and PK parameters for C16 after IV administration in male CD-1 mice at 1 mg/kg.
t (h) 0 (pre-dose) BLOQ BLOQ BLOQ
(1 picture or pasted object on this page, not shown here)

[2] = Protein binding and recovery; format: in vitro ADME; conditions: Human plasma
[3] = mouse blood, IP 10 mg/kg, individual animals 4-6, 10 mg/kg
[4] = mouse blood, IV 1 mg/kg, individual animals 1-3, 1 mg/kg
[5] = mouse blood, PO 10 mg/kg, individual animals 7-9, 10 mg/kg
[6] = whole blood, male CD-1 mouse, IP 10 mg/kg, average

**Q.** Which AUClast [1, 3] does the source give for COc1cc(C(=O)/C=C/c2ccc(F)cc2)cc(OC)c1OC [C16, 4-fluoro-3’,4’,5’-trimethoxychalcone] here?
**A.** 127 ng·h/mL and 101 ng·h/mL

**Q.** And the “AUC∞” value [1, 3]?
**A.** 134 ng·h/mL and 106 ng·h/mL

**Q.** And the Bioavailability [1, 3]?
**A.** 63.7% and 50.6%

**Q.** What about the “Dose-normalized AUClast” value [1, 3] of the same compound?
**A.** 9.92 kg·ng·h/mL/mg and 12.7 kg·ng·h/mL/mg and 10.1 kg·ng·h/mL/mg

**Q.** And the “Dose-normalized AUC∞” value [1, 3]?
**A.** 10.1 kg·ng·h/mL/mg and 13.4 kg·ng·h/mL/mg and 10.6 kg·ng·h/mL/mg

**Q.** What about the MRTlast [1, 3] of the same compound?
**A.** 57 min and 55 min

**Q.** And the cmax [1, 3]?
**A.** 106 ng/mL and 125 ng/mL

**Q.** And the t1/2 [1, 3]?
**A.** 51.7 min and 54.1 min

**Q.** And the AUClast [1, 4]?
**A.** 22.2 ng·h/mL and 17.5 ng·h/mL

**Q.** And the “AUC∞” value [1, 4]?
**A.** 24.7 ng·h/mL and 19.6 ng·h/mL

**Q.** And the CL [1, 4]?
**A.** 673 mL/min/kg and 850 mL/min/kg

**Q.** And the MRTlast [1, 4]?
**A.** 23.9 min and 28.6 min

**Q.** And the Vss [1, 4]?
**A.** 27.2 L/kg and 37.7 L/kg

**Q.** And the c0 [1, 4]?
**A.** 75.8 ng/mL and 103 ng/mL and 49.1 ng/mL

**Q.** What about the t1/2 [1, 4] of the same compound?
**A.** 46.8 min and 38.2 min

**Q.** And the AUClast [1, 5]?
**A.** 15.1 ng·h/mL and 24.5 ng·h/mL

**Q.** And the Bioavailability [1, 5]?
**A.** 7.56% and 12.3%

**Q.** What about the “Dose-normalized AUClast” value [1, 5] of the same compound?
**A.** 2.32 kg·ng·h/mL/mg and 1.51 kg·ng·h/mL/mg and 2.45 kg·ng·h/mL/mg

**Q.** And the MRTlast [1, 5]?
**A.** 100 min and 103 min and 46 min

**Q.** And the cmax [1, 5]?
**A.** 8.76 ng/mL and 17.8 ng/mL and 10.9 ng/mL

**Q.** And the Adverse reactions ([1]; mouse, 1 mg/kg IV, 10 mg/kg IP or PO, cassette)?
**A.** No adverse reactions were observed

**Q.** And the Individual blood concentration ([1]; mouse, IP 10 mg/kg, 0.083 h, animals 4-6, 10 mg/kg)?
**A.** 28.2 ng/mL and 68.6 ng/mL and 64.5 ng/mL

**Q.** And the Individual blood concentration ([1]; mouse, IP 10 mg/kg, 0.25 h, animals 4-6, 10 mg/kg)?
**A.** 106 ng/mL and 125 ng/mL

**Q.** And the Individual blood concentration ([1]; mouse, IP 10 mg/kg, 0.50 h, animals 4-6, 10 mg/kg)?
**A.** 94.4 ng/mL and 56.3 ng/mL

**Q.** And the Individual blood concentration ([1]; mouse, IP 10 mg/kg, 1.0 h, animals 4-6, 10 mg/kg)?
**A.** 48.0 ng/mL and 32.1 ng/mL

**Q.** What about the Individual blood concentration ([1]; mouse, IP 10 mg/kg, 2.0 h, animals 4-6, 10 mg/kg) of the same compound?
**A.** 13.3 ng/mL and 12.1 ng/mL

**Q.** What about the Individual blood concentration ([1]; mouse, IP 10 mg/kg, 4.0 h, animals 4-6, 10 mg/kg) of the same compound?
**A.** 1.79 ng/mL and 5.29 ng/mL and 3.62 ng/mL

**Q.** And the Individual blood concentration ([1]; mouse, IP 10 mg/kg, 8.0 h, animals 4-6)?
**A.** BLOQ (BLOQ: Below the limit of quantitation (1 ng/mL))

**Q.** What about the Individual blood concentration ([1]; mouse, IV 1 mg/kg, 0.083 h, animals 1-3, 1 mg/kg) of the same compound?
**A.** 54.4 ng/mL and 33.4 ng/mL

**Q.** And the Individual blood concentration ([1]; mouse, IV 1 mg/kg, 0.25 h, animals 1-3, 1 mg/kg)?
**A.** 15.2 ng/mL and 15.4 ng/mL

**Q.** And the Individual blood concentration ([1]; mouse, IV 1 mg/kg, 0.50 h, animals 1-3, 1 mg/kg)?
**A.** 8.57 ng/mL and 10.9 ng/mL

**Q.** And the Individual blood concentration ([1]; mouse, IV 1 mg/kg, 1.0 h, animals 1-3, 1 mg/kg)?
**A.** 4.93 ng/mL and 3.76 ng/mL

**Q.** What about the Individual blood concentration ([1]; mouse, IV 1 mg/kg, 2.0 h, animals 1-3, 1 mg/kg) of the same compound?
**A.** 2.21 ng/mL and 2.30 ng/mL

**Q.** What about the Individual blood concentration ([1]; mouse, IV 1 mg/kg, 4.0 h, animals 1-3) of the same compound?
**A.** BLOQ (BLOQ: Below the limit of quantitation (1 ng/mL))

**Q.** And the Individual blood concentration ([1]; mouse, IV 1 mg/kg, 8.0 h, animals 1-3)?
**A.** BLOQ (BLOQ: Below the limit of quantitation (1 ng/mL))

**Q.** And the Individual blood concentration ([1]; mouse, PO 10 mg/kg, 0.25 h, animals 7-9, 10 mg/kg)?
**A.** 8.76 ng/mL and 17.8 ng/mL and 10.9 ng/mL

**Q.** What about the Individual blood concentration ([1]; mouse, PO 10 mg/kg, 0.50 h, animals 7-9, 10 mg/kg) of the same compound?
**A.** 7.95 ng/mL and 12.4 ng/mL and 5.89 ng/mL

**Q.** What about the Individual blood concentration ([1]; mouse, PO 10 mg/kg, 1.0 h, animals 7-9, 10 mg/kg) of the same compound?
**A.** 7.01 ng/mL and 5.15 ng/mL and 3.45 ng/mL

**Q.** What about the Individual blood concentration ([1]; mouse, PO 10 mg/kg, 2.0 h, animals 7-9, 10 mg/kg) of the same compound?
**A.** 6.19 ng/mL and 4.28 ng/mL and 10.5 ng/mL

**Q.** What about the Individual blood concentration ([1]; mouse, PO 10 mg/kg, 4.0 h, animals 7-9, 10 mg/kg) of the same compound?
**A.** 3.44 ng/mL and BLOQ (BLOQ: Below the limit of quantitation (1 ng/mL)) and 1.26 ng/mL

**Q.** And the Individual blood concentration ([1]; mouse, PO 10 mg/kg, 8.0 h, animals 7-9)?
**A.** BLOQ (BLOQ: Below the limit of quantitation (1 ng/mL))

**Q.** What about the “Dose-normalized AUClast” value [1, 6] of the same compound?
**A.** 10.9 kg·ng·h/mL/mg

**Q.** What about the “Dose-normalized AUC∞” value [1, 6] of the same compound?
**A.** 11.4 kg·ng·h/mL/mg

**Q.** What about the “Dose-normalized AUClast” value ([1]; whole blood, male CD-1 mouse, PO 10 mg/kg, average) of the same compound?
**A.** 2.09 kg·ng·h/mL/mg

**Q.** What about the fraction unbound at 100 μM [2] of the same compound?
**A.** 0.01

**Q.** What about the recovery at 100 μM [2] of the same compound?
**A.** 90%
